This is an account of results in US20180236011A1, “METHODS TO ENHANCE TUMOR-TARGETING BY BACTERIA” (priority 2017, published 2018).

Test [1] has as its system melanoma PDOX. Kind of test: Confocal microscopy of S. typhimurium A1-R-GFP tumor targeting (fluorescent area). The conditions noted are these: drug combined with S. typhimurium A1-R. It is filed as in vivo, Athymic nu/nu nude mice. As for the experimental part: GFP-expressing S. typhimurium A1-R bacteria (AntiCancer Inc.,) were grown overnight on LB medium (Fisher Sci., Hanover Park, Ill., USA) and then diluted 1:10 in LB medium. Bacteria were harvested at late-log phase, washed with PBS, and then diluted in PBS. S. typhimurium A1-R was injected intravenously. A total of 5×10^7 CFU S. typhimurium A1-R in 100 μl PBS was administered to each mouse.
(§1) PDOX mouse models were randomized into four groups of 10 mice each: untreated control (n=10); treated with S. typhimurium A1-R (5×10^7 CFU/100 μl, i.v., qw×2, n=10); treated with TEM (25 mg/kg, p.o., qd×14) combined with S. typhimurium A1-R (5×10^7 CFU/[…]., qw×2, n=10); treated with VEM (30 mg/kg, p.o., qd×14) combined with S. typhimurium A1-R (5×10^7CFU/100 μl, i.v., qw×2, n=10). Tumor length and width were measured twice a week. Tumor volume was calculated with the following formula: Tumor volume (mm3)=length (mm)×width (mm)×width (mm)×½. Data are presented as mean±SD. The tumor volume ratio is defined at the tumor volume at any given time point relative to the initial tumor volume.
The FV1000 confocal microscope (Olympus, Tokyo, Japan) was used for high-resolution imaging. Fluorescence images were obtained using the 20×/0.50 UPLAN FLN and 40×/1.3 oil Olympus UPLAN FLN objectives. The tumor fluorescent area was analyzed with UVP software (UVP, Upland, Calif.).

Test [2] concerns melanoma PDOX. Kind of test: Histological analysis (H&E) of treated PDOX tumors. The conditions noted are these: each drug combined with S. typhimurium A1-R; much more extensive than S. typhimurium A1-R. It is filed as in vivo, Athymic nu/nu nude mice. The procedure:
as §1
Fresh tumor samples were fixed in 10% formalin and embedded in paraffin before sectioning and staining. Tissue sections (5 μm) were deparaffinized in xylene and rehydrated in an ethanol series. Hematoxylin and eosin (H&E) staining was performed according to standard protocols. Histological examination was performed with a BHS System Microscope (Olympus Corporation, Tokyo, Japan). Images were acquired with INFINITY ANALYZE software (Lumenera Corporation, Ottawa, Canada).

Regarding `Cn1nnc2c(C(N)=O)ncn2c1=O` [TEM, temozolamide], in test [1] (elevated accumulation leading to extensive tumor necrosis), the “S. typhimurium A1-R tumor targeting / accumulation” value is “promoted S. typhimurium A1-R tumor targeting”. In addition, the “S. typhimurium A1-R-GFP fluorescent area compared to S. typhimurium A1-R alone” value in test [1] (p<0.01) was “significantly increase”. The “tumor necrosis (histology)” value in test [2] is given as “extensive necrosis”.
